# From PubChem BioAssay (NCI)
#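 1) Cells in 96-well plates. 2) Compound, 48 h, 5 concentrations. 3) Linear interpolation between surrounding doses. 4) Unreached endpoint = highest concentration. The concentration for full growth arrest is given as TGI.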
# Columns and labels:
# Assay in all cases: NCI anticancer screen, dose series, 48 h
# [1] = tested on: NCI-H460 lung
# [2] = tested on: COLO 205 colon
# [3] = tested on: UACC-62 melanoma
# [4] = tested on: SK-MEL-5 melanoma
# [5] = tested on: CCRF-CEM leukemia
# [6] = tested on: XF 498 CNS
# [7] = tested on: K-562 leukemia
# [8] = tested on: OVCAR-8 ovarian
# [9] = tested on: UO-31 renal
# [10] = tested on: SF-539 CNS
# [11] = tested on: SNB-75 CNS
# [12] = tested on: M19-MEL melanoma
# [13] = tested on: CAKI-1 renal
# [14] = tested on: DMS 114 small cell lung
# [15] = tested on: HOP-18 NSCLC
# [16] = tested on: HCC-2998 colon
# [17] = tested on: HT29 colon
# [18] = tested on: MALME-3M melanoma
# [19] = tested on: OVCAR-5 ovarian
# [20] = tested on: SN12C renal
# [21] = tested on: DLD-1 colon
# [22] = tested on: SK-MEL-28 melanoma
# [23] = tested on: HCT-116 colon
# [24] = tested on: A498 renal
# [25] = tested on: SF-268 CNS
# [26] = tested on: SK-OV-3 ovarian
# [27] = tested on: LOX IMVI melanoma
# [28] = tested on: 786-0 renal
# [29] = tested on: RXF 393 renal
# [30] = tested on: KM20L2 colon
# [31] = tested on: TK-10 renal
# [32] = tested on: HOP-62 NSCLC
# [33] = tested on: HOP-92 NSCLC
# [34] = tested on: DMS 273 small cell lung
# [35] = tested on: HCT-15 colon
# [36] = tested on: OVCAR-3 ovarian
# [37] = tested on: MOLT-4 leukemia
# [38] = tested on: OVCAR-4 ovarian
# [39] = tested on: KM12 colon
# [40] = tested on: NCI-H23 lung
# [41] = tested on: IGROV1 ovarian
# [42] = tested on: SR leukemia
# [43] = tested on: SW-620 colon
# [44] = tested on: LXFL 529 NSCLC
# [45] = tested on: RPMI-8226 leukemia
# [46] = tested on: SF-295 CNS
# [47] = tested on: A549 NSCLC
# [48] = tested on: EKVX NSCLC
# [49] = tested on: SNB-19 CNS
# [50] = tested on: SNB-78 CNS
# [51] = tested on: UACC-257 melanoma
# [52] = tested on: M14 melanoma
# [53] = tested on: ACHN renal
# [54] = tested on: U251 CNS
# [55] = tested on: NCI-H226 lung
# [56] = tested on: T-47D breast
# [57] = tested on: HL-60(TB) leukemia
# [58] = tested on: MDA-N
# [59] = tested on: MDA-MB-231 breast
# [60] = tested on: SK-MEL-2 melanoma
# [61] = tested on: DU-145 prostate
# [62] = tested on: BT-549 breast
# [63] = tested on: NCI-H522 lung
# [64] = tested on: HS 578T breast
# [65] = tested on: PC-3 prostate
# [66] = tested on: MDA-MB-435
# [67] = tested on: RXF-631 renal
smiles,measurement,setting,value
COC(=O)CCC(=O)N1C/C(=C\c2ccccc2)C(=O)/C(=C/c2ccccc2)C1,TGI,[1],10.8 µM
same,TGI,[2],3.67 µM
same,TGI,[3],3.61 µM
same,TGI,[4],5.44 µM
same,TGI,[5],> 100 µM
same,TGI,[6],19.2 µM
same,TGI,[7],> 100 µM
same,TGI,[8],14.6 µM
same,TGI,[9],3.97 µM
same,TGI,[10],7.53 µM
same,TGI,[11],5.27 µM
same,TGI,[12],11.7 µM
same,TGI,[13],3.22 µM
same,TGI,[14],3.56 µM
same,TGI,[15],6.85 µM
same,TGI,[16],3.06 µM
same,TGI,[17],4.09 µM
same,TGI,[18],4.62 µM
same,TGI,[19],6.24 µM
same,TGI,[20],3.44 µM
same,TGI,[21],10.9 µM
same,TGI,[22],4.24 µM
same,TGI,[23],1.42 µM
same,TGI,[24],4.45 µM
same,TGI,[25],5.89 µM
same,TGI,[26],13.9 µM
same,TGI,[27],1.59 µM
same,TGI,[28],3.75 µM
same,TGI,[29],3.74 µM
same,TGI,[30],3.82 µM
same,TGI,[31],13.2 µM
same,TGI,[32],28.7 µM
same,TGI,[33],18.7 µM
same,TGI,[34],2.73 µM
same,TGI,[35],2.43 µM
same,TGI,[36],5.01 µM
same,TGI,[37],7.77 µM
same,TGI,[38],4.92 µM
same,TGI,[39],2.84 µM
same,TGI,[40],4.35 µM
same,TGI,[41],3.94 µM
same,TGI,[42],12.2 µM
same,TGI,[43],0.389 µM
same,TGI,[44],4.13 µM
same,TGI,[45],> 100 µM
same,TGI,[46],5.87 µM
same,TGI,[47],12.3 µM
same,TGI,[48],14.3 µM
same,TGI,[49],14.5 µM
same,TGI,[50],7.83 µM
same,TGI,[51],4.11 µM
same,TGI,[52],3.93 µM
same,TGI,[53],3.8 µM
same,TGI,[54],2.6 µM
same,TGI,[55],13.5 µM
CC[C@@]1(OC(=O)C(N)CCCCN)C(=O)OCc2c1cc1n(c2=O)Cc2cc3ccccc3nc2-1 (some centres not stated),TGI,[1],0.372 µM
same,TGI,[56],0.935 µM
same,TGI,[2],3.39 µM
same,TGI,[57],0.127 µM
same,TGI,[3],0.0707 µM
same,TGI,[4],0.184 µM
same,TGI,[5],0.115 µM
same,TGI,[6],1.78 µM
same,TGI,[7],> 33.1 µM
same,TGI,[8],3.1 µM
same,TGI,[9],0.148 µM
same,TGI,[10],0.149 µM
same,TGI,[11],0.609 µM
same,TGI,[58],4.44 µM
same,TGI,[12],0.509 µM
same,TGI,[13],0.158 µM
same,TGI,[14],0.263 µM
same,TGI,[15],> 23 µM
same,TGI,[16],2.11 µM
same,TGI,[17],11.4 µM
same,TGI,[59],> 100 µM
same,TGI,[18],1.79 µM
same,TGI,[60],1.39 µM
same,TGI,[19],3.86 µM
same,TGI,[20],1.63 µM
same,TGI,[21],> 27.1 µM
same,TGI,[22],16.1 µM
same,TGI,[23],0.495 µM
same,TGI,[24],0.455 µM
same,TGI,[25],11.9 µM
same,TGI,[26],12 µM
same,TGI,[61],0.25 µM
same,TGI,[27],0.18 µM
same,TGI,[28],0.163 µM
same,TGI,[29],0.861 µM
same,TGI,[62],10.9 µM
same,TGI,[30],12.5 µM
same,TGI,[63],2.39 µM
same,TGI,[64],> 100 µM
same,TGI,[31],65.9 µM
same,TGI,[65],> 100 µM
same,TGI,[32],0.0667 µM
same,TGI,[33],1.72 µM
same,TGI,[34],0.366 µM
same,TGI,[35],15.6 µM
same,TGI,[36],2.37 µM
same,TGI,[37],0.13 µM
same,TGI,[38],2.84 µM
same,TGI,[39],5.26 µM
same,TGI,[66],1.26 µM
same,TGI,[40],0.282 µM
same,TGI,[41],2.37 µM
same,TGI,[42],< 0.0217 µM
same,TGI,[43],> 28.7 µM
same,TGI,[44],4.34 µM
same,TGI,[45],0.883 µM
same,TGI,[46],0.813 µM
same,TGI,[47],2.81 µM
same,TGI,[48],> 30.6 µM
same,TGI,[49],12.2 µM
same,TGI,[50],> 100 µM
same,TGI,[51],1.56 µM
same,TGI,[52],1.37 µM
same,TGI,[53],0.129 µM
same,TGI,[54],> 11.6 µM
same,TGI,[55],2.7 µM
CCOC(=O)C(=O)Nc1cc(Cl)c(Cl)cc1Cl,TGI,[1],> 100 µM
same,TGI,[2],> 100 µM
same,TGI,[3],> 100 µM
same,TGI,[4],> 100 µM
same,TGI,[7],> 100 µM
same,TGI,[8],> 100 µM
same,TGI,[9],> 100 µM
same,TGI,[10],> 100 µM
same,TGI,[11],> 100 µM
same,TGI,[12],> 100 µM
same,TGI,[13],> 100 µM
same,TGI,[14],> 100 µM
same,TGI,[16],> 100 µM
same,TGI,[17],> 100 µM
same,TGI,[67],> 100 µM
same,TGI,[18],> 100 µM
same,TGI,[60],> 100 µM
same,TGI,[19],> 100 µM
same,TGI,[20],> 100 µM
same,TGI,[22],> 100 µM
same,TGI,[23],> 100 µM
same,TGI,[25],> 100 µM
same,TGI,[26],> 100 µM
same,TGI,[27],> 100 µM
same,TGI,[28],> 100 µM
same,TGI,[29],> 100 µM
same,TGI,[30],> 100 µM
same,TGI,[63],> 100 µM
same,TGI,[31],> 100 µM
same,TGI,[32],> 100 µM
same,TGI,[33],> 100 µM
same,TGI,[34],> 100 µM
same,TGI,[35],> 100 µM
same,TGI,[36],> 100 µM
same,TGI,[37],> 100 µM
same,TGI,[38],> 100 µM
same,TGI,[39],> 100 µM
same,TGI,[40],> 100 µM
same,TGI,[41],> 100 µM
same,TGI,[43],> 100 µM
same,TGI,[44],> 100 µM
same,TGI,[45],> 100 µM
same,TGI,[46],> 100 µM
same,TGI,[48],> 100 µM
same,TGI,[49],> 100 µM
same,TGI,[50],> 100 µM
same,TGI,[51],> 100 µM
same,TGI,[52],> 100 µM
same,TGI,[53],> 100 µM
same,TGI,[54],> 100 µM
same,TGI,[55],> 100 µM
